Measured values taken from patent US10239878B2, “Macrocyclic ligands with pendant chelating moieties and complexes thereof” (LUMIPHORE, INC., priority 2016, dated 2019).
Where a name gives a salt, the structure may show the parent alone. Marks after values point to notes of the source that are not given here.

Experiments:
[1] = Europium titration experiments for determining extinction coefficients; assay type: physicochemical; conditions: for ε at λmax (starred values): assumed equal to those measured by titration for 16 · Eu or 43 · Eu; for extinction coefficient: UV-vis titration with europium chloride, TBS buffer pH 7.6, at lambda max; for lambda max: UV-vis titration, TBS buffer; for ε at λmax: by europium titration, TBS buffer pH 7.6
Method: In order to determine accurate extinction coefficients for 16 and 16⋅Eu, titration experiments using europium chloride as the titrant were performed. Europium chloride hexahydrate (13.22 mg, 0.03608 mmol) was dissolved into 5 mM citrate buffer (pH=4) using a 100 mL volumetric flask to give a 0.3608 mM europium chloride solution, which was then titrated into a 0.5 mL solution of 16 in TBS buffer (Tris-buffered saline, 50 mM Tris, 150 mM NaCl, pH=7.6) using 5 μL aliquots. The UV-vis spectra were adjusted for the increase in solvent volume due to each injection. The results of the UV-vis titration are plotted in FIG. 3.
The volume of europium chloride corresponds to 16.70 nmol of europium, meaning the starting concentration of ligand 16 was 33.40 μM. […] These absorbance and concentration values yield extinction coefficients of 13,600 M^−1 cm^−1 and 14,300 M^−1 cm^−1 for the ligand 16 and the complex 16⋅Eu respectively.
In order to determine accurate extinction coefficients for 43 and 43⋅Eu, titration experiments using europium chloride as the titrant were performed. Europium chloride hexahydrate (47.58 mg, 0.1299 mmol) was dissolved into 50 mM citrate buffer (pH=4) using a 10 mL volumetric flask to give a 12.99 mM europium chloride solution, which was then transferred to a 100 mL volumetric flask and diluted 1:10 with water. The resulting 1.299 mM europium chloride solution (in 5 mM citrate buffer) was then titrated into a 1 mL solution of 43 in TBS buffer using 5 μL aliquots. The UV-vis spectra were adjusted for the increase in solvent volume due to each injection. The results of the UV-vis titration are plotted in FIG. 4.
The volume of europium chloride corresponds to 47.46 nmol of europium, meaning the starting concentration of ligand 43 was 47.46 μM. […] These absorbance and concentration values yield extinction coefficients of 13,000 M^−1 cm^−1 and 12,800 M^−1 cm^−1 for the ligand and complex respectively.
Titration of ligand 43 was also performed by luminescence (FIG. 5), monitoring the europium signal at 612 nm upon photoexcitation of the solution at 340 nm. The ligand solution used for the UV-vis titration of 43 mentioned above was first diluted 1:10 in TBS buffer. Similarly, the 1.299 mM stock europium solution was separately diluted 1:10 with water. […] The 32.99 μL equivalence point gives extinction coefficients of 14,400 M^−1 cm^−1 at 383 nm and 14,200 M^−1 cm^−1 at 357 nm for 43 and 43⋅Eu respectively. Averaging the values from both UV-vis and luminescence titration experiments of 43 yields extinction coefficients of 13,700 M^−1 cm^−1 at 383 nm and 13,500 M^−1 cm^−1 at 357 nm for 43 and 43⋅Eu respectively.

[2] = Photophysical characterization of Eu complexes (UV-vis absorption, quantum yield, lifetime); assay type: physicochemical; conditions: for ε260/ε at λmax / ε280/ε at λmax / λmax / Φtotal at 365 nm excitation: TBS buffer; for ε260/ε at λmax / ε280/ε at λmax / λmax: pH 7.6; for Φtotal at 365 nm excitation: quinine sulfate as quantum yield standard; for Lifetime: luminescence, HPLC purified Eu complexes
Method: The europium complexes of ligands 16, 29, 33, 40, and 43 were prepared by separately dissolving each ligand (2 mg) into methanol (200 μL). Excess europium chloride hexahydrate (˜5 equivalents) was dissolved in methanol (200 μL) and the full volume was added to each of the ligand solutions. The solvent was removed, and the residue was dissolved into DMF (50 μL). The europium complexes were then purified by semi-prep HPLC on an Agilent 1260 Infinity instrument using an Eclipse XDB-C18 column (5 μm, 9.4×250 mm). The mobile phase was 10 to 30% acetonitrile in water containing 0.1% trifluoroacetic acid. The volatiles were removed from the HPLC eluents under vacuum, and the residues were separately dissolved into methanol (500 μL) to give methanolic stock solutions of each europium complex with greater than 98% purity. A few drops of these methanolic solutions were evaporated to dryness, and then the residue was dissolved into TBS buffer at a concentration of ca. 3 μM to make aqueous stock solutions (20 mL) with an absorbance of 0.05 (1 cm path length) at 365 nm. Five dilutions (1/6, 2/6, 3/6, 4/6, and 5/6) were made from these aqueous stock solutions to yield six samples with evenly spaced concentrations (3 mL volume each). Quinine sulfate dissolved in 0.05 M sulfuric acid was similarly diluted to a final absorbance of 0.05 at 365 nm, and this solution was similarly (1/6, 2/6, 3/6, 4/6, and 5/6) diluted to afford six quinine sulfate reference samples of evenly spaced concentration. Quinine sulfate in 0.05 M sulfuric acid was used as the quantum yield standard (Φ=0.508). By measuring the absorbance and luminescence of these dilute solutions, the quantum yields of the new Eu complexes were determined. A 5 cm path-length quartz cell was used to measure the absorbance of these dilute solutions in order to improve the UV-vis signal-to-noise. Steady state photoluminescence measurements were collected in a 1 cm fluorescence cuvette at 365 nm excitation wavelength, 1 nm resolution, 10 nm excitation slit width, 1 nm emission slit width, and 0.2 sec integration time on an instrument that has been described elsewhere (D'Aléo, A.; Moore, E. G.; Szigethy, G.; Xu, J.; Raymond, K. N. Inorg. Chem. 2009, 48, 9316.). Absorption spectra were measured at 1 nm resolution, and the absorbance of each sample was taken as the average absorbance measured from 360-370 nm to reflect the 10 nm excitation slit width used for luminescence measurements. The data derived from these experiments, and from the titration experiments in example 11 are tabulated below.

[3] = in 0.05 M sulfuric acid; cited from earlier work
[4] = Thorium(IV) complexes; ligand denticity bi- to deca-dentate; cited from earlier work
[5] = 250 mM DTPA competition experiments (kinetic stability of Eu complexes); assay type: physicochemical
Source text: From these experiments, it is clear that 43⋅Eu is remarkably stable to a wide range of competitive metal ions and chelators. The competitor concentrations mentioned above are a good way to assess the kinetic stability of the complex in various assay conditions. DTPA is an exceptionally good ligand for lanthanide ions, and thus it is not typically used in practical assays. However, DTPA competition offers an excellent way to benchmark the kinetic stability of the complexes reported here. […] In order to compare the kinetic stability of the complexes reported here, a 750 mM stock solution (25 mL) of DTPA was prepared by dissolving DTPA (7.375 g, 18.75 mmol) into water (20 mL) containing potassium hydroxide (5.26 g, 93.75 mmol). The pH of the DTPA solution was adjusted to pH=7.6 by addition of concentrated hydrochloric acid, and then the solution was diluted to a final volume of 25 mL to give a 750 mM DTPA stock solution at pH=7.6. HPLC purified europium complexes of 16, 29, 33, 40, and 43 were separately diluted to 11 μM in TBS buffer, pH=7.6. For each DTPA competition experiment, 1 mL of the 750 mM DTPA solution was added to 2 mL of the 11 μM europium complex solution. The luminescence at 612 nm (365 nm excitation) was monitored for these five separate solutions containing 250 mM DTPA and 7.1 μM of each europium complex as a function of time.

SMILES	ε260/ε at λmax [2]	ε280/ε at λmax [2]	λmax [2] [nm]	Φtotal at 365 nm excitation [2] [%]	Lifetime [2] [μs]	Log K1 [4]	other results
O=C1NCCCN(C(=O)c2cccc(=O)n2[O-])CCCCN(C(=O)c2cccc(=O)n2[O-])CCCNC(=O)c2ccc(n([O-])c2=O)C(=O)N[C@@H]2COC[C@@H]2NC(=O)c2ccc1c(=O)n2[O-].[Eu+3] [40⋅Eu]	1.51	1.19	357	28.2	729		ε at λmax (starred values) [1]: 13,500* M^−1cm^−1
O=C1NCCCN(C(=O)c2cccc(=O)n2O)CCCCN(C(=O)c2cccc(=O)n2O)CCCNC(=O)c2ccc(n(O)c2=O)C(=O)NCCNC(=O)c2ccc1c(=O)n2O [Compound 16]	1.98	1.27	382				extinction coefficient [1]: 13,600 M^−1 cm^−1; lambda max [1]: 382 nm; ε at λmax [1]: 13,600 M^−1cm^−1
C=C[C@H]1C[N@@]2CC[C@H]1C[C@H]2[C@H](O)c1ccnc2ccc(OC)cc12 [Quinine sulfate]							quantum yield standard Φ [3]: 0.508
O=C(O)CN(CCN(CC(=O)O)CC(=O)O)CC(=O)O [EDTA]						25.3	
O=C(O)CN(CCO)CCN(CC(=O)O)CC(=O)O [HEDTA]						18.5	
O=C1NCCCN(C(=O)c2cccc(=O)n2[O-])CCCCN(C(=O)c2cccc(=O)n2[O-])CCCNC(=O)c2ccc(n([O-])c2=O)C(=O)NCCNC(=O)c2ccc1c(=O)n2[O-].[Eu+3] [16⋅Eu]	1.40	1.12	361	30.9	716		extinction coefficient [1]: 14,300 M^−1 cm^−1; lambda max [1]: 361 nm; ε at λmax [1]: 14,300 M^−1cm^−1
NCCCC[C@H]1CNC(=O)c2ccc(c(=O)n2[O-])C(=O)NCCCN(C(=O)c2cccc(=O)n2[O-])CCCCN(C(=O)c2cccc(=O)n2[O-])CCCNC(=O)c2ccc(n([O-])c2=O)C(=O)N1.[Eu+3] [29⋅Eu]	1.42	1.18	363	29.8	716		ε at λmax (starred values) [1]: 14,300* M^−1cm^−1; kinetic stability relative to 43⋅Eu to challenge by DTPA [5]: at least an order of magnitude; kinetic stability relative to m-tetrahydrofurandiamine-based macrocycles (40⋅Eu and 43⋅Eu) [5]: ~5 ×
O=C(O)CN(CC(=O)O)CC(=O)O [NTA]						16.9	
NCCOCCNC(=O)C1CCCN(C(=O)c2cccc(=O)n2[O-])CCCNC(=O)c2ccc(n([O-])c2=O)C(=O)NCCNC(=O)c2ccc(c(=O)n2[O-])C(=O)NCCCN1C(=O)c1cccc(=O)n1[O-].[Eu+3] (stereo not drawn) [33⋅Eu]	1.40	1.14	363	30.0	723		ε at λmax (starred values) [1]: 14,300* M^−1cm^−1; kinetic stability relative to m-tetrahydrofurandiamine-based macrocycles (40⋅Eu and 43⋅Eu) [5]: ~5 ×; reduction in kinetic stability upon introduction of the spermine-based sidearm ([5]; 33⋅Eu versus 16⋅Eu, 43⋅Eu versus 40⋅Eu): two fold
CC(=O)CC(C)=O [Acac]						7.85	
O=C(O)CN(CCN(CCN(CC(=O)O)CC(=O)O)CC(=O)O)CCN(CC(=O)O)CC(=O)O [TTHA]						31.9	
